Source: patent US9920339B2, “Methods, reagents and cells for biosynthesizing compounds” (INVISTA North America S.á r.l., priority 2014, dated 2018)

Assays:
[1] = system: Pseudomonas syringae ω-transaminase (SEQ ID NO: 10); experiment: ω-transaminase enzyme activity assay, amine substrate plus pyruvate to L-alanine (cell free extract); type: biochemical; conditions: for accepted as substrate as confirmed against the empty vector control: reverse direction, 10 mM substrate, 10 mM pyruvate, 100 μM pyridoxyl 5′ phosphate, pH 7.5, 25° C., 4 h, L-alanine by RP-HPLC; for accepted as substrate, concluded from the reversibility of the ω-transaminase activity: forward (amine-forming) direction, inferred from the reverse assay
Method: (§1) A nucleotide sequence encoding an N-terminal His-tag was added to the Chromobacterium violaceum, Pseudomonas aeruginosa, Pseudomonas syringae, Rhodobacter sphaeroide, Escherichia coli and Vibrio fluvialis genes encoding the ω-transaminases of SEQ ID NOs: 8-13, respectively (see FIG. 10) such that N-terminal HIS tagged ω-transaminases could be produced. The modified genes were cloned into a pET21a expression vector under the T7 promoter. Each expression vector was transformed into a BL21[DE3] E. coli host. Each resulting recombinant E. coli strain were cultivated at 37° C. in a 250 mL shake flask culture containing 50 mL LB media and antibiotic selection pressure, with shaking at 230 rpm. Each culture was induced overnight at 16° C. using 1 mM IPTG.
(§2) The pellet from each induced shake flask culture was harvested via centrifugation. Each pellet was resuspended and lysed via sonication. The cell debris was separated from the supernatant via centrifugation and the cell free extract was used immediately in enzyme activity assays.
(§3) Enzyme activity assays in the reverse direction (i.e., 5-aminopentanol to 5-oxopentanol) were performed in a buffer composed of a final concentration of 50 mM HEPES buffer (pH=7.5), 10 mM 5-aminopentanol, 10 mM pyruvate, and 100 μM pyridoxyl 5′ phosphate. Each enzyme activity assay reaction was initiated by adding cell free extract of the ω-transaminase gene product or the empty vector control to the assay buffer containing the 5-aminopentanol and then incubated at 25° C. for 4 h, with shaking at 250 rpm. The formation of L-alanine was quantified via RP-HPLC.
as §1, with “and” for “Rhodobacter sphaeroide,”, “coli” for “coli and Vibrio fluvialis”, “8-10 and 12,” for “8-13,”
as §3, with “cadaverine” for “5-aminopentanol”, “5-aminopentanal)” for “5-oxopentanol)”, “cadaverine,” for “5-aminopentanol,”
(§4) The activity of the N-terminal His-tagged ω-transaminases of SEQ ID NOs: 8, 10-13 (see Example 3, and FIG. 10) for converting N5-acetyl-1,5-diaminopentane to N5-acetyl-5-aminopentanal was assayed using a buffer composed of a final concentration of 50 mM HEPES buffer (pH=7.5), 10 mM N5-acetyl-1,5-diaminopentane, 10 mM pyruvate and 100 μM pyridoxyl 5′ phosphate. Each enzyme activity assay reaction was initiated by adding a cell free extract of the ω-transaminase or the empty vector control to the assay buffer containing the N5-acetyl-1,5-diaminopentane then incubated at 25° C. for 4 h, with shaking at 250 rpm. The formation of L-alanine was quantified via RP-HPLC.
(§5) The activity of the N-terminal His-tagged ω-transaminases of SEQ ID NOs: 8-13 (see Example 3, and FIG. 10) for converting 1-aminopentane to pentanal was assayed using a buffer composed of a final concentration of 50 mM HEPES buffer (pH=7.5), 10 mM 1-aminopentane, 10 mM pyruvate and 100 μM pyridoxyl 5′ phosphate. […]

[2] = molecular target: T1, Escherichia coli ω-transaminase (SEQ ID NO: 12) (Escherichia coli, UniProt P42588); experiment: as above; type: biochemical; conditions: for accepted as substrate as confirmed against the empty vector control: reverse direction, 10 mM substrate, 10 mM pyruvate, 100 μM pyridoxyl 5′ phosphate, pH 7.5, 25° C., 4 h, L-alanine by RP-HPLC; for accepted as substrate, concluded from the reversibility of the ω-transaminase activity: forward (amine-forming) direction, inferred from the reverse assay
T1 construct: His-tag (N); made in house; host or cells: E. coli BL21[DE3], pET21a
Method: as §1, §2, §3
as §1, with “and” for “Rhodobacter sphaeroide,”, “coli” for “coli and Vibrio fluvialis”, “8-10 and 12,” for “8-13,”
as §3, with “cadaverine” for “5-aminopentanol”, “5-aminopentanal)” for “5-oxopentanol)”, “cadaverine,” for “5-aminopentanol,”
as §4, §5

[3] = system: Chromobacterium violaceum ω-transaminase (SEQ ID NO: 8); experiment: as above; type: biochemical; conditions: reverse direction, 10 mM substrate, 10 mM pyruvate, 100 μM pyridoxyl 5′ phosphate, pH 7.5, 25° C., 4 h, L-alanine by RP-HPLC
Method: A nucleotide sequence encoding an N-terminal His-tag was added to the genes from Chromobacterium violaceum and Rhodobacter sphaeroides encoding the ω-transaminases of SEQ ID NOs: 8 and 10 respectively (see FIG. 10) such that N-terminal HIS tagged ω-transaminases could be produced. Each of the resulting modified genes was cloned into a pET21a expression vector under control of the T7 promoter and each expression vector was transformed into a BL21[DE3] E. coli host. The resulting recombinant E. coli strains were cultivated at 37° C. in a 250 mL shake flask culture containing 50 mL LB media and antibiotic selection pressure, with shaking at 230 rpm. Each culture was induced overnight at 16° C. using 1 mM IPTG.
as §2
as §3, with “5-aminopentanoate” for “5-aminopentanol”, “glutarate semialdehyde)” for “5-oxopentanol)”, “5-aminopentanoate,” for “5-aminopentanol,”, “pyruvate” for “pyruvate,”, “and” for “and then”, “L-alanine from pyruvate” for “L-alanine”
as §1, §3
as §1, with “and” for “Rhodobacter sphaeroide,”, “coli” for “coli and Vibrio fluvialis”, “8-10 and 12,” for “8-13,”
Enzyme activity assays in the reverse direction (i.e., cadaverine to 5-aminopentanal) were performed in a buffer composed of a final concentration of 50 mM HEPES buffer (pH=7.5), 10 mM cadaverine, 10 mM pyruvate, and 100 μM pyridoxyl 5′ phosphate. […]

[4] = system: Pseudomonas aeruginosa ω-transaminase (SEQ ID NO: 9); experiment: as above; type: biochemical; conditions: for accepted as substrate as confirmed against the empty vector control: reverse direction, 10 mM substrate, 10 mM pyruvate, 100 μM pyridoxyl 5′ phosphate, pH 7.5, 25° C., 4 h, L-alanine by RP-HPLC; for accepted as substrate, concluded from the reversibility of the ω-transaminase activity: forward (amine-forming) direction, inferred from the reverse assay
Method: as §1, §2, §3
as §1, with “and” for “Rhodobacter sphaeroide,”, “coli” for “coli and Vibrio fluvialis”, “8-10 and 12,” for “8-13,”
as §3, with “cadaverine” for “5-aminopentanol”, “5-aminopentanal)” for “5-oxopentanol)”, “cadaverine,” for “5-aminopentanol,”
as §4, with “8-13” for “8, 10-13”, “1-aminopentane” for “N5-acetyl-1,5-diaminopentane”, “pentanal” for “N5-acetyl-5-aminopentanal”, “1-aminopentane,” for “N5-acetyl-1,5-diaminopentane,”
as §5, with “1-aminoheptane” for “1-aminopentane”, “heptanal” for “pentanal”, “1-aminoheptane,” for “1-aminopentane,”

[5] = system: Rhodobacter sphaeroides ω-transaminase (SEQ ID NO: 11); experiment: as above; type: biochemical; conditions: for accepted as substrate as confirmed against the empty vector control: reverse direction, 10 mM substrate, 10 mM pyruvate, 100 μM pyridoxyl 5′ phosphate, pH 7.5, 25° C., 4 h, L-alanine by RP-HPLC; for accepted as substrate, concluded from the reversibility of the ω-transaminase activity: forward (amine-forming) direction, inferred from the reverse assay
Method: as §1, §2, §3, §4
as §4, with “8-13” for “8, 10-13”, “1-aminopentane” for “N5-acetyl-1,5-diaminopentane”, “pentanal” for “N5-acetyl-5-aminopentanal”, “1-aminopentane,” for “N5-acetyl-1,5-diaminopentane,”
as §4, with “8-13” for “8, 10-13”, “1-aminoheptane” for “N5-acetyl-1,5-diaminopentane”, “heptanal” for “N5-acetyl-5-aminopentanal”, “1-aminoheptane,” for “N5-acetyl-1,5-diaminopentane,”

[6] = system: Vibrio fluvialis ω-transaminase (SEQ ID NO: 13); experiment: as above; type: biochemical; conditions: for accepted as substrate as confirmed against the empty vector control: reverse direction, 10 mM substrate, 10 mM pyruvate, 100 μM pyridoxyl 5′ phosphate, pH 7.5, 25° C., 4 h, L-alanine by RP-HPLC; for accepted as substrate, concluded from the reversibility of the ω-transaminase activity: forward (amine-forming) direction, inferred from the reverse assay
Method: as §1, §2, §3, §4
as §4, with “8-13” for “8, 10-13”, “1-aminopentane” for “N5-acetyl-1,5-diaminopentane”, “pentanal” for “N5-acetyl-5-aminopentanal”, “1-aminopentane,” for “N5-acetyl-1,5-diaminopentane,”
as §4, with “8-13” for “8, 10-13”, “1-aminoheptane” for “N5-acetyl-1,5-diaminopentane”, “heptanal” for “N5-acetyl-5-aminopentanal”, “1-aminoheptane,” for “N5-acetyl-1,5-diaminopentane,”

[7] = system: acetylputrescine deacetylase from Micrococcus luteus K-11; conditions: Suzuki et al., 1986; cited from earlier work
gene product of ygjG = gene product of ygjG (Escherichia coli, UniProt P42588); conditions: Samsonova et al., 2003; cited from earlier work
[8] = system: Chromobacterium violaceum ω-transaminase (SEQ ID NO: 8); experiment: ω-transaminase enzyme activity assay, amine substrate plus pyruvate to L-alanine (cell free extract); type: biochemical; conditions: forward (amine-forming) direction, inferred from the reverse assay

T1 sequence (P42588 whole entry): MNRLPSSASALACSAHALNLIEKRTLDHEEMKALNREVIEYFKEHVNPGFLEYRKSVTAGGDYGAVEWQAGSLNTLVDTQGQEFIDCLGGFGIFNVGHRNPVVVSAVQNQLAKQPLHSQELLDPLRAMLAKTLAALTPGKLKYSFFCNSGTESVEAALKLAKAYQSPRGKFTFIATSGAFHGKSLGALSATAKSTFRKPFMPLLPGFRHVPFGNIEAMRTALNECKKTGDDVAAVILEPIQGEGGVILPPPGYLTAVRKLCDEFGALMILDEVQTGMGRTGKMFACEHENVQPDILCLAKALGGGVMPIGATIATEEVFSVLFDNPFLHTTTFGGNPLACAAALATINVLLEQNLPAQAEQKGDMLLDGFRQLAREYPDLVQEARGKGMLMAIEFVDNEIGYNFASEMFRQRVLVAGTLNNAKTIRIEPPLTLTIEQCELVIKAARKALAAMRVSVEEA
Sequence of gene product of ygjG (P42588 whole entry): as above

NCCCCCO [5-aminopentanol]
accepted as substrate as confirmed against the empty vector control [1]: accepted
accepted as substrate as confirmed against the empty vector control [2]: accepted
accepted as substrate as confirmed against the empty vector control [3]: accepted
accepted as substrate as confirmed against the empty vector control [4]: accepted
accepted as substrate as confirmed against the empty vector control [5]: accepted
accepted as substrate as confirmed against the empty vector control [6]: accepted

CCCCCN [1-aminopentane]
accepted as substrate as confirmed against the empty vector control [1]: accepted
accepted as substrate as confirmed against the empty vector control [2]: accepted
accepted as substrate as confirmed against the empty vector control [3]: accepted
accepted as substrate as confirmed against the empty vector control [4]: accepted
accepted as substrate as confirmed against the empty vector control [5]: accepted
accepted as substrate as confirmed against the empty vector control [6]: accepted

NCCCCC(=O)O [5-aminopentanoate]
accepted as substrate as confirmed against the empty vector control [3]: accepted

CC(=O)NCCCCN [acetylputrescine]
accepted as substrate [7]: accepts

CC(=O)NCCCCNCCCN [N^8-acetylspermidine]
accepted as substrate [7]: accepts

NCCCCN [putrescine]
accepted as diamine substrate (gene product of ygjG): accepts

CC(=O)NCCCCC=O [N5-acetyl-5-aminopentanal]
accepted as substrate, concluded from the reversibility of the ω-transaminase activity [1]: accept
accepted as substrate, concluded from the reversibility of the ω-transaminase activity [2]: accept
accepted as substrate, concluded from the reversibility of the ω-transaminase activity [5]: accept
accepted as substrate, concluded from the reversibility of the ω-transaminase activity [6]: accept
accepted as substrate, concluded from the reversibility of the ω-transaminase activity [8]: accept

CC(=O)NCCCCCN [acetylcadaverine]
accepted as substrate [7]: accepts

NCCCCNCCCN [spermidine]
accepted as diamine substrate (gene product of ygjG): accepts

O=CCCCCO [5-oxopentanol]
accepted as substrate, concluded from the reversibility of the ω-transaminase activity [1]: accept
accepted as substrate, concluded from the reversibility of the ω-transaminase activity [2]: accept
accepted as substrate, concluded from the reversibility of the ω-transaminase activity [4]: accept
accepted as substrate, concluded from the reversibility of the ω-transaminase activity [5]: accept
accepted as substrate, concluded from the reversibility of the ω-transaminase activity [6]: accept
accepted as substrate, concluded from the reversibility of the ω-transaminase activity [8]: accept

NCCCCC=O [5-aminopentanal]
accepted as substrate, concluded from the reversibility of the ω-transaminase activity [1]: accept
accepted as substrate, concluded from the reversibility of the ω-transaminase activity [2]: accept
accepted as substrate, concluded from the reversibility of the ω-transaminase activity [4]: accept
accepted as substrate, concluded from the reversibility of the ω-transaminase activity [8]: accept

CC(=O)NCCCCCN [N5-acetyl-1,5-diaminopentane]
accepted as substrate as confirmed against the empty vector control [1]: accepted
accepted as substrate as confirmed against the empty vector control [2]: accepted
accepted as substrate as confirmed against the empty vector control [3]: accepted
accepted as substrate as confirmed against the empty vector control [5]: accepted
accepted as substrate as confirmed against the empty vector control [6]: accepted

CCCCCCCN [1-aminoheptane]
accepted as substrate as confirmed against the empty vector control [1]: accepted
accepted as substrate as confirmed against the empty vector control [2]: accepted
accepted as substrate as confirmed against the empty vector control [3]: accepted
accepted as substrate as confirmed against the empty vector control [4]: accepted
accepted as substrate as confirmed against the empty vector control [5]: accepted
accepted as substrate as confirmed against the empty vector control [6]: accepted
